Experiment: photoluminescence quantum yield (fraction); solvent given as SMILES

Work on O=C1c2ccccc2C(=O)c2cc(-c3ccc(N(c4ccccc4)c4ccccc4)cc3)ccc21 yielded a photoluminescence quantum yield (in CCCCCC) of 0.392, a photoluminescence quantum yield (in CCOC(C)=O) of 0.0001 and a photoluminescence quantum yield (in CCOCC) of 0.0129. The photoluminescence quantum yield (in Cc1ccccc1) was 0.092, the photoluminescence quantum yield (in ClC(Cl)(Cl)Cl) was 0.326 and the photoluminescence quantum yield (in ClCCl) was 0.

COc1cccc(-c2[nH]c(=O)n3c2-c2ccccc2C3=O)c1O showed a photoluminescence quantum yield (in CC#N) of 0.51, a photoluminescence quantum yield (in CO) of 0.02 and a photoluminescence quantum yield (in ClCCl) of 0.75.

Work on Cc1ccc(-c2ccc(/C=C/c3ccc(Cl)cc3)cn2)nc1 yielded a photoluminescence quantum yield (in CC#N) of 0.76.

For O=C([O-])c1ccc2cc3cc(C(=O)[O-])ccc3cc2c1, the photoluminescence quantum yield (in CN(C)C=O) was 0.11.

COc1ccc(-c2cn3cc(C)c[n+]3[n-]2)cc1 showed a photoluminescence quantum yield (in ClCCl) of 0.025.

With COc1ncccc1B(O)O the photoluminescence quantum yield (in C1COCCO1) was 0.423, the photoluminescence quantum yield (in CC(C)O) was 0.549 and the photoluminescence quantum yield (in CCCCCC) was 0.502. The photoluminescence quantum yield (in CCCCCCC) was 0.689, the photoluminescence quantum yield (in CCCCCCCC) was 0.701 and the photoluminescence quantum yield (in CCCCCCCCO) was 0.317. For the same molecule, the photoluminescence quantum yield (in CCO) was 0.783 and the photoluminescence quantum yield (in CO) was 0.518.

c1cc(-c2ccc(-n3c4ccccc4c4ccccc43)cc2)c2nsnc2c1 gave a photoluminescence quantum yield (in ClCCl) of 0.68.

In the case of CCCCCCCCOc1ccc2c3c(c4ccc(OCCCCCCCC)cc4c2c1)C(C)(C)c1ccccc1-3, the photoluminescence quantum yield (in C1CCCCC1) is reported as 0.24.

Molecule CC(C)(C)c1ccc2c(c1)c1cc(C(C)(C)C)ccc1n2-c1ccc(N(c2ccc(-c3ccc(-c4ccc(-c5ccc(-c6ccc(-c7ccc(N(c8ccc(-n9c%10ccc(C(C)(C)C)cc%10c%10cc(C(C)(C)C)ccc%109)cc8)c8ccc(-n9c%10ccc(C(C)(C)C)cc%10c%10cc(C(C)(C)C)ccc%109)cc8)cc7)s6)s5)s4)s3)cc2)c2ccc(-n3c4ccc(C(C)(C)C)cc4c4cc(C(C)(C)C)ccc43)cc2)cc1 has a photoluminescence quantum yield (in ClCCl) of 0.14.

With O=C1OC(c2ccccc2)=N/C1=C\c1ccc(N(c2ccccc2)c2ccccc2)cc1 the photoluminescence quantum yield (in C1CCCCC1) was 0.031, the photoluminescence quantum yield (in C1CCOC1) was 0.108 and the photoluminescence quantum yield (in C1COCCO1) was 0.045. The photoluminescence quantum yield (in CC1CCCCC1) was 0.043, the photoluminescence quantum yield (in CC#N) was 0.014 and the photoluminescence quantum yield (in CC(C)=O) was 0.055. It also gave a photoluminescence quantum yield (in CC(C)CC(C)(C)C) of 0.028, a photoluminescence quantum yield (in CCCCC) of 0.029 and a photoluminescence quantum yield (in CCCCCC) of 0.031. It also gave a photoluminescence quantum yield (in CCCCCCC) of 0.034, a photoluminescence quantum yield (in CCCCOCCCC) of 0.036 and a photoluminescence quantum yield (in CCOC(C)=O) of 0.095. It also gave a photoluminescence quantum yield (in CCOCC) of 0.072, a photoluminescence quantum yield (in CN(C)C=O) of 0.014 and a photoluminescence quantum yield (in CS(C)=O) of 0.012. The photoluminescence quantum yield (in Cc1ccccc1) was 0.034 and the photoluminescence quantum yield (in ClC(Cl)Cl) was 0.028.

Work on CCCC1(CCC)c2cc(-c3ccc4c(c3)C(CCC)(CCC)c3cc(-c5ccc6c(c5)C(CCC)(CCC)c5cc(C(C)(C)CC)ccc5-6)ccc3-4)ccc2-c2ccc(-c3ccc4c(c3)C(CCC)(CCC)c3cc(C(C)(C)CC)ccc3-4)cc21 yielded a photoluminescence quantum yield (in C1CCCCC1) of 0.98.

Work on O=c1oc2ccccc2cc1-c1ccc([N+](=O)[O-])cc1 yielded a photoluminescence quantum yield (in C1CCOC1) of 0.006, a photoluminescence quantum yield (in CC#N) of 0.0022 and a photoluminescence quantum yield (in CS(C)=O) of 0.0013. For the same molecule, the photoluminescence quantum yield (in ClC(Cl)Cl) was 0.013.

Work on Cc1ccc(C(=O)c2c(C)c3ccc4cccc5c6cccc7ccc2c(c76)c3c45)cc1 yielded a photoluminescence quantum yield (in ClCCl) of 0.039.

Reference: the Deep4Chem optical property database
